Molecules are shown by their SMILES.

The target in this experiment is T1, PDE4B2 (GB no. M97515) (Homo sapiens, UniProt Q07343).
T1 construct: made in house; host or cells: SF21 insect cells (baculovirus; virus made in SF9 cells)
T1 sequence (Q07343 1-564 isoform Q07343-2): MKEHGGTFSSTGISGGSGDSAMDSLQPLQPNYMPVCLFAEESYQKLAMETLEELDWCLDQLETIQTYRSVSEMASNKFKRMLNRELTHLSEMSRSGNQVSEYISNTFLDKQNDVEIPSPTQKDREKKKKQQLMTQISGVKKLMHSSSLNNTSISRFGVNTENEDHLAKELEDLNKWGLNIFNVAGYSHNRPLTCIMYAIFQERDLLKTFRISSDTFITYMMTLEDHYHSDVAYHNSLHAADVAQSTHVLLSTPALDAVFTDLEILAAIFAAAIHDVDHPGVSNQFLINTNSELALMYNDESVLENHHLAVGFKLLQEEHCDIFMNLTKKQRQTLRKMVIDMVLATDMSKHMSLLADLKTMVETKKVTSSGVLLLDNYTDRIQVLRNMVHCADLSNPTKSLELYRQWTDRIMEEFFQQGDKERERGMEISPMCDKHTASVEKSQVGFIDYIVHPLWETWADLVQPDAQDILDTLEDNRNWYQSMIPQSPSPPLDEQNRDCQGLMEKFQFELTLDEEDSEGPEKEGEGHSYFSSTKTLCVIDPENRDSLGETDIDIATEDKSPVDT
Kind of experiment: Inhibition of PDE4B2 activity, Method b (modified SPA test, recombinant PDE expressed in SF21 cells). The class given is biochemical. The conditions noted are these: 0.5 μM cAMP, read-out: Inhibition of the PDE4 activity, −log IC50 (converted). Here is the method: The PDE4B2 (GB no. M97515) was a gift of Prof. M. Conti (Stanford University, USA). It was amplified from the original plasmid (pCMV5) via PCR with primers Rb9 (5′-[…]-3′) and Rb10 (5′-[…]-3′) and cloned into the pCR-Bac vector (Invitrogen, Groningen, NL).
The recombinant baculovirus was prepared by means of homologous recombination in SF9 insect cells. The expression plasmid was cotransfected with Bac-N-Blue (Invitrogen, Groningen, NL) or Baculo-Gold DNA (Pharmingen, Hamburg) using a standard protocol (Pharmingen, Hamburg). Wt virus-free recombinant virus supernatant was selected using plaque assay methods. After that, high-titre virus supernatant was prepared by amplifying 3 times. PDE was expressed in SF21 cells by infecting 2×10^6 cells/ml with an MOI (multiplicity of infection) between 1 and 10 in serum-free SF900 medium (Life Technologies, Paisley, UK). The cells were cultured at 28° C. for 48-72 hours, after which they were pelleted for 5-10 min at 1000 g and 4° C.
The SF21 insect cells were resuspended, at a concentration of approx. 10^7 cells/ml, in ice-cold (4° C.) homogenization buffer (20 mM Tris, pH 8.2, containing the following additions: 140 mM NaCl, 3.8 mM KCl, 1 mM EGTA, 1 mM MgCl2, 10 mM β-mercaptoethanol, 2 mM benzamidine, 0.4 mM Pefablock, 10 μM leupeptin, 10 μM pepstatin A, 5 μM trypsin inhibitor) and disrupted by ultrasonication. The homogenate was then centrifuged for 10 min at 1000×g and the supernatant was stored at −80° C. until subsequent use (see below). The protein content was determined by the Bradford method (BioRad, Munich) using BSA as the standard.
PDE4B2 activity is inhibited by the said compounds in a modified SPA (scintillation proximity assay) test, supplied by Amersham Biosciences (see procedural instructions “phosphodiesterase [3H]cAMP SPA enzyme assay, code TRKQ 7090”), carried out in 96-well microtiter plates (MTP's). The test volume is 100 μl and contains 20 mM Tris buffer (pH 7.4), 0.1 mg of BSA (bovine serum albumin)/ml, 5 mM Mg^2+, 0.5 μM cAMP (including about 50,000 cpm of [3H]cAMP), 1 μl of the respective substance dilution in DMSO and sufficient recombinant PDE (1000×g supernatant, see above) to ensure that 10-20% of the cAMP is converted under the said experimental conditions. […] After a preincubation of 5 min at 37° C., the reaction is started by adding the substrate (cAMP) and the assay is incubated for a further 15 min; after that, it is stopped by adding SPA beads (50 μl). In accordance with the manufacturer's instructions, the SPA beads had previously been resuspended in water, but were then diluted 1:3 (v/v) in water; the diluted solution also contains 3 mM IBMX to ensure a complete PDE activity stop. After the beads have been sedimented (>30 min), the MTP's are analyzed in commercially available luminescence detection devices. The corresponding IC50 values of the compounds for the inhibition of PDE activity are determined from the concentration-effect curves by means of non-linear regression.
As to `CCCCOc1ccc(C2=N[C@@H]3CC[C@@H](O)C[C@@H]3c3cc(OC)c(OC)cc32)cc1` (racemic) [Compound 43, (±)-(2RS,4aRS,10bRS)-6-(4-Butoxy-phenyl)-8,9-dimethoxy-1,2,3,4,4a,10b-hexahydrophenanthridin-2-ol], the IC50 is 0.182 to 6.03 nM.
For `COc1cc2c(cc1OC)[C@H]1C[C@H](O)CC[C@H]1N=C2c1ccc(NC(C)=O)cc1` (racemic) [Compound 45, (±)-N-[4-((2RS,4aRS,10bRS)-2-Hydroxy-8,9-dimethoxy-1,2,3,4,4a,10b-hexahydro-phenanthridin-6-yl)-phenyl]-acetamide] the value was 0.182 to 6.03 nM; for `COc1cc2c(cc1OC)[C@H]1C[C@H](O)CC[C@H]1N=C2c1ccc(Cl)cc1` (racemic) [Compound 46, (±)-(2RS,4aRS,10bRS)-6-(4-Chloro-phenyl)-8,9-dimethoxy-1,2,3,4,4a,10 b-hexahydro-phenanthridin-2-ol], 0.182 to 6.03 nM.
Take `CCCOc1cc(C2=N[C@@H]3CC[C@@H](O)C[C@@H]3c3cc(OC)c(OC)cc32)ccc1OC` (racemic) [Compound 48, (±)-(2RS,4aRS,10bRS)-8,9-Dimethoxy-6-(4-methoxy-3-propoxy-phenyl)-1,2,3,4,4a,10b-hexahydro-phenanthridin-2-ol]: the concentration for half-maximal inhibition (IC50) was 0.182 to 6.03 nM.
Under `COc1cc2c(cc1OC)[C@H]1C[C@H](O)CC[C@H]1N=C2c1ccc(OC(F)F)cc1` (racemic) [Compound 49, (±)-(2RS,4aRS,10bRS)-6-[4-(1,1-Difluoro-methoxy)-phenyl]-8,9-dimethoxy-1,2,3,4,4a,10b-hexahydro-phenanthridin-2-ol] stands 0.182 to 6.03 nM; under `CCOc1cc2c(cc1OC)C(c1ccc(C(=O)OC)cc1)=N[C@@H]1CC[C@@H](O)C[C@H]21` (racemic) [Compound 50, (±)-4-((2RS,4aRS,10bRS)-9-Ethoxy-2-hydroxy-8-methoxy-1,2,3,4,4a,10 b-hexahydro-phenanthridin-6-yl)-benzoic acid methyl ester], 0.182 to 6.03 nM; under `CCOc1cc2c(cc1OC)C(c1ccc(F)cc1)=N[C@@H]1CC[C@@H](O)C[C@H]21` (racemic) [Compound 51, (±)-(2RS,4aRS,10bRS)-9-Ethoxy-6-(4-fluoro-phenyl)-8-methoxy-1,2,3,4,4a,10b-hexahydro-phenanthridin-2-ol], 0.182 to 6.03 nM.
Under `CCOc1cc2c(cc1OC)C(c1ccc(C#N)cc1)=N[C@@H]1CC[C@@H](O)C[C@H]21` (racemic) [Compound 52, (±)-4-((2RS,4aRS,10bRS)-9-Ethoxy-2-hydroxy-8-methoxy-1,2,3,4,4a,10b-hexahydro-phenanthridin-6-yl)-benzonitrile] stands 0.182 to 6.03 nM; under `CCOc1cc2c(cc1OC)C(c1ccc(OCC)c(OCC3CC3)c1)=N[C@@H]1CC[C@@H](O)C[C@H]21` (racemic) [Compound 53, (±)-(2RS,4aRS,10bRS)-6-(3-Cyclopropylmethoxy-4-ethoxy-phenyl)-9-ethoxy-8-methoxy-1,2,3,4,4a,10b-hexahydro-phenanthridin-2-ol], 0.182 to 6.03 nM; under `CCOc1cc2c(cc1OC)C(c1ccc(OC(F)F)c(OCC3CC3)c1)=N[C@@H]1CC[C@@H](O)C[C@H]21` (racemic) [Compound 54, (±)-(2RS,4aRS,10bRS)-6-[3-Cyclopropylmethoxy-4-(1,1-difluoro-methoxy)-phenyl]-9-ethoxy-8-methoxy-1,2,3,4,4a,10b-hexahydro-phenanthridin-2-ol], 0.182 to 6.03 nM.
Under `CCOc1cc2c(cc1OC)C(c1ccc(OC(F)F)c(OC(F)F)c1)=N[C@@H]1CC[C@@H](O)C[C@H]21` (racemic) [Compound 55, (±)-(2RS,4aRS,10bRS)-6-[3,4-Bis-(1,1-difluoro-methoxy)-phenyl]-9-ethoxy-8-methoxy-1,2,3,4,4a,10b-hexahydro-phenanthridin-2-ol] stands 0.182 to 6.03 nM.
In the case of `CCOc1cc2c(cc1OC)C(c1cccc(OC(F)F)c1)=N[C@@H]1CC[C@@H](O)C[C@H]21` (racemic) [Compound 56, (±)-(2RS,4aRS,10bRS)-6-[3-(1,1-Difluoro-methoxy)-phenyl]-9-ethoxy-8-methoxy-1,2,3,4,4a,10b-hexahydro-phenanthridin-2-ol], the 50% inhibitory concentration (IC50) was 0.182 to 6.03 nM.

(Values after patent US7632844B2, “2-hydroxy-6-phenylphenanthridines as PDE-4 inhibitors” (Nycomed GmbH, priority 2002, dated 2009).)
